Results: ChEMBL document CHEMBL4387706, “Discovery of Novel Spiroindoline Derivatives as Selective Tankyrase Inhibitors” (J Med Chem, 2019)
≈ marks a conversion by molar mass, not a printed value. Calls of active or inactive are those of the source. The rule behind the calls is not given here.

Assays:
[1] = Permeability of the compound by PAMPA; format: ADME; conditions: read-out: permeability
[2] = Protein binding in human serum assessed as unbound fraction at 1 uM measured after 24 hrs by LC-MS/MS analysis; format: ADME, cell-free
[3] = Protein binding in mouse serum assessed as unbound fraction at 1 uM measured after 24 hrs by LC-MS/MS analysis; format: ADME, cell-free
[4] = Initial plasma concentration in Sprague-Dawley rat at 1 mg/kg, iv; format: ADME, organism-based
[5] = Half life in Sprague-Dawley rat at 1 mg/kg, iv; format: ADME, organism-based; conditions: in vivo
[6] = AUC (infinity) in Sprague-Dawley rat at 1 mg/kg, iv; format: ADME, organism-based; parameters: dose 1 mg/kg, route intravenous, time infinity; conditions: in vivo
[7] = Total clearance in Sprague-Dawley rat at 1 mg/kg, iv; format: ADME, organism-based; conditions: in vivo
[8] = Volume of distribution at steady state in Sprague-Dawley rat at 1 mg/kg, iv; format: ADME, organism-based; conditions: in vivo, read-out: Vdss
[9] = Cmax in Sprague-Dawley rat at 3 mg/kg, po; format: ADME, organism-based; parameters: dose 3 mg/kg, route oral; conditions: in vivo
[10] = Tmax in Sprague-Dawley rat at 3 mg/kg, po; format: ADME, organism-based; conditions: in vivo
[11] = AUC (infinity) in Sprague-Dawley rat at 3 mg/kg, po; format: ADME, organism-based; parameters: dose 3 mg/kg, time infinity, route oral; conditions: in vivo
[12] = Oral bioavailability in Sprague-Dawley rat at 3 mg/kg; format: ADME, organism-based; conditions: in vivo
[13] = target: Poly [ADP-ribose] polymerase 2 (Homo sapiens, UniProt Q9UGN5); experiment: Inhibition of human recombinant N-terminal GST-tagged PARP2 (2 to 583 residues) expressed in baculovirus infected Sf9 cells assessed as reduction in auto-PARylation using histone as substrate measured after 45 mins in presence of biotinylated-NAD+ by ELISA
[14] = target: T1, Protein mono-ADP-ribosyltransferase PARP10 (Homo sapiens, UniProt Q53GL7); experiment: Inhibition of human recombinant N-terminal TEV-cleavgae site-fused-FLAG/Polyhis-tagged PARP10 […] expressed in Escherichia coli assessed as reduction in auto-PARylation using histone as substrate measured after 45 mins in presence of biotinylated-NAD+ by ELISA
T1 sequence (Q53GL7 whole entry): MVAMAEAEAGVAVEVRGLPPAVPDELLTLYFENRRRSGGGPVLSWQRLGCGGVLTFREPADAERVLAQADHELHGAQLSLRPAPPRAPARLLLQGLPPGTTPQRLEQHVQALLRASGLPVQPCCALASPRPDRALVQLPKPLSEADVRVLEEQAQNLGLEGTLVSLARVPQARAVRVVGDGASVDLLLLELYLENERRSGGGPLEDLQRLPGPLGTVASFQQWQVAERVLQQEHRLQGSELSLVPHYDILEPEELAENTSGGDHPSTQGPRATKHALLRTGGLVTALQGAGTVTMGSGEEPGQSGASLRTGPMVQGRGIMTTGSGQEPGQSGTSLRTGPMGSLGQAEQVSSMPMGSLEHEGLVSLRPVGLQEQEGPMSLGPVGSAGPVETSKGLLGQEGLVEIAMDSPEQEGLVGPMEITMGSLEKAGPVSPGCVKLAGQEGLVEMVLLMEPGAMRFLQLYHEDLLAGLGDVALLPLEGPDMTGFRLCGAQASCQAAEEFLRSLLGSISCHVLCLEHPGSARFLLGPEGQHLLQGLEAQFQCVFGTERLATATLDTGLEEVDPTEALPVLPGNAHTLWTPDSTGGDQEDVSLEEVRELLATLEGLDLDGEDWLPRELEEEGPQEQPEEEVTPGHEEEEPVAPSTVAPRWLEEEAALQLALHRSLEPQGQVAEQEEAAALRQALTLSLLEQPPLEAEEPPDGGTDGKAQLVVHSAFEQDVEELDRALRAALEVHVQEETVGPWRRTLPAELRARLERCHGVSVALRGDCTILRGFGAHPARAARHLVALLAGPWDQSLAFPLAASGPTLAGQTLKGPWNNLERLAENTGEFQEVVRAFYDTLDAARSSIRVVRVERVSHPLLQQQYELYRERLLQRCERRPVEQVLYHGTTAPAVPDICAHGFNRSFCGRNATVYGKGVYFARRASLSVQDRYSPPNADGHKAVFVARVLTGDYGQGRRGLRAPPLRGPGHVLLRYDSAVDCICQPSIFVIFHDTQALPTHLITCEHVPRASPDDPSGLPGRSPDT

[15] = species: Homo sapiens; experiment: Effect on hippo signaling protein in human COLO320DM cells assessed as change in AMOTL2 expression at 0.1 to 1 uM measured after 48 hrs by RT-PCR analysis; format: cell-based
[16] = species: Homo sapiens; experiment: Effect on hippo signaling protein in human COLO320DM cells assessed as change in CTGF expression at 0.1 to 1 uM measured after 48 hrs by RT-PCR analysis; format: cell-based
[17] = species: Homo sapiens; experiment: Effect on hippo signaling protein in human COLO320DM cells assessed as change in CYR61 expression at 0.1 to 1 uM measured after 48 hrs by RT-PCR analysis; format: cell-based
[18] = tested on: COLO 320DM; experiment: Antitumor activity against human COLO320DM cells xenografted in mouse assessed as tumor growth inhibition at 40 mg/kg, ip administered twice daily for 11 days relative to control; format: functional; conditions: 264 h, read-out: TGI
[19] = Toxicity in mouse xenografted with human COLO320DM cells assessed as body weight loss at 40 mg/kg, ip administered twice daily for 11 days; format: organism-based; conditions: in vivo, 264 h
[20] = target: Poly [ADP-ribose] polymerase 1 (Homo sapiens, UniProt P09874)
Description: Inhibition of recombinant human PARP1 expressed in Escherichia coli assessed as reduction in auto-PARylation using histone as substrate measured after 45 mins in presence of biotinylated-NAD+ by ELISA

[21] = physchem; conditions: phosphate buffer, pH 7.4
[22] = in vitro; conditions: human, liver microsomes
Description: Stability in human liver microsomes assessed as parent compound remaining at 1 uM measured after 30 mins in presence of NADPH by LC-MS/MS analysis

[23] = in vitro; conditions: mouse, liver microsomes
Description: Stability in mouse liver microsomes assessed as parent compound remaining at 1 uM measured after 30 mins in presence of NADPH by LC-MS/MS analysis

Poly [ADP-ribose] polymerase 2, sequence (Q9UGN5 whole entry, the tested form may be a part): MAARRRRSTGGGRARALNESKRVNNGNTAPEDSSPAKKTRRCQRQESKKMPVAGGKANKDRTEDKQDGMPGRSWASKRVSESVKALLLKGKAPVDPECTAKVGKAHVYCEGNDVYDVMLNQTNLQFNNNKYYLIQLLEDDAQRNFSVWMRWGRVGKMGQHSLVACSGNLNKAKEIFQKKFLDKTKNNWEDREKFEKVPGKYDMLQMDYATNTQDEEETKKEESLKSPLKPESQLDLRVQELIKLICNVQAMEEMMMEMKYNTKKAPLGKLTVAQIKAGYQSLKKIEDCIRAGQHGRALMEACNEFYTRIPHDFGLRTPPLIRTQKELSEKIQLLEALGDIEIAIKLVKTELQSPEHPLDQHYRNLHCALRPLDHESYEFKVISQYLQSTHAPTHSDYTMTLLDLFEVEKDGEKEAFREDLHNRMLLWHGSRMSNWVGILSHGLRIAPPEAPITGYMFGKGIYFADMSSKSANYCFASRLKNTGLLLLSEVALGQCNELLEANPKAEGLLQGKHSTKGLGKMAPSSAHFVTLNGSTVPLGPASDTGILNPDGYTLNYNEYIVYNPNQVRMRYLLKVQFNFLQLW
Poly [ADP-ribose] polymerase 1, sequence (P09874 whole entry): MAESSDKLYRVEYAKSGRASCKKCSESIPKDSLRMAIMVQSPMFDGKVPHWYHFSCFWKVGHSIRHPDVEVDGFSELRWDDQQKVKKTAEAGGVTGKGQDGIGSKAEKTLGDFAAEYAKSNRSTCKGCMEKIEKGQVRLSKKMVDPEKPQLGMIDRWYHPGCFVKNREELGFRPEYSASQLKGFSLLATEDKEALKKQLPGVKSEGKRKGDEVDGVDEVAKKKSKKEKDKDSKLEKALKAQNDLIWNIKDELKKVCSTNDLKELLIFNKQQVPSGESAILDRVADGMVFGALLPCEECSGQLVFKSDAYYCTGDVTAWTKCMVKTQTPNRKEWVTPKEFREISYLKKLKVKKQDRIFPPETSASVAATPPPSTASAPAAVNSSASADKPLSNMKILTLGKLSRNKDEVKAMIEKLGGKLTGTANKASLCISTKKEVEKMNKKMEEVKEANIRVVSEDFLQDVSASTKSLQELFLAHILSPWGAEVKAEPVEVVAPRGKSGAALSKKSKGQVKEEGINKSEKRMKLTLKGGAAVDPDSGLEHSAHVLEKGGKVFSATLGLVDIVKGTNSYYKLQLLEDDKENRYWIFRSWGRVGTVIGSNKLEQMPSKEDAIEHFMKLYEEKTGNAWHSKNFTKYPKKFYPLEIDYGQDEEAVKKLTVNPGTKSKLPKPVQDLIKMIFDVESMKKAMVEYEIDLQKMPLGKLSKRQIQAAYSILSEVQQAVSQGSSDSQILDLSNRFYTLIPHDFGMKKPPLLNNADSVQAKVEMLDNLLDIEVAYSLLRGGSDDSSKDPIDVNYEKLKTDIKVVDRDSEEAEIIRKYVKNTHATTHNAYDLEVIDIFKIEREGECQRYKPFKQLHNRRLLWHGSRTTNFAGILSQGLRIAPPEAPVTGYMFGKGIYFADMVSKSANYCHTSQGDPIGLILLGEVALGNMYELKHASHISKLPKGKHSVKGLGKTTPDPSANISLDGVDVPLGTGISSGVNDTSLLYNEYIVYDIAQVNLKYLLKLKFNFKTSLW

Compound CS(=O)(=O)c1ccc(-c2nnc(/C=C/c3nnc(-c4ccc(C#N)cc4)o3)n2-c2ccccc2Cl)nc1 has a Papp [1] of 11.4 ×10⁻⁶ cm/s, a fraction unbound at 24 h, 1 µM [2] of 0.028 and a fraction unbound at 24 h, 1 µM [3] of 0.035. The C0 [4] was 1540 nM, the half-life [5] was 3.3 h and the AUC(0-inf) [6] was 0.79 µM·h. The clearance [7] was 39.7 mL/min/kg, the Vd [8] was 1.79 L/kg and the Cmax [9] was 230 nM. For the same compound, the Tmax [10] was 4 h, the AUC(0-inf) [11] was 2.33 µM·h and the bioavailability [12] was 97.8%. For the same compound, the IC50 [13] was greater than 100 µM, the IC50 [14] was greater than 100 µM and the Activity [15] was “inactive”. For the same compound, the Activity [16] was “inactive”, the Activity [17] was “inactive” and the inhibition in vivo at 40 mg/kg [18] was 48%. The Activity [19] was “Toxic”, the IC50 [20] was greater than 100 µM and the solubility at 1 h, 200 µM [21] was 1.5 µg/mL (≈ 2.83 µM). The remaining at 0.5 h, 1 µM [22] was 100% and the remaining at 0.5 h, 1 µM [23] was 95.8%.
